{
  "source": "patent US9493512B2",
  "about": "“Solution phase processes for the manufacture of macrocyclic depsipeptides and new intermediates” (NOVARTIS AG, priority 2012, dated 2016)",
  "origin": "cited, not measured here",
  "biological_target": "chymotrypsin (Bos taurus, UniProt P00766)",
  "conditions": "see J. Nat. Prod. 68(9), 1324-7 (2005); read-out: IC50 value, inhibition of chymotrypsin",
  "data": [
    {"compound": "CC(=O)N[C@@H](CCC(N)=O)C(=O)N[C@@H]1C(=O)N[C@@H](CC(C)C)C(=O)N[C@H]2CC[C@@H](O)N(C2=O)[C@@H](Cc2ccccc2)C(=O)N(C)[C@@H](Cc2ccc(O)cc2)C(=O)N[C@@H](C(C)C)C(=O)O[C@@H]1C", "note": "[Nostopeptin (BN920)]", "values": [
      {"measurement": "IC50", "value": 31, "unit": "nM"}
    ]}
  ]
}
